Paper PMC6109063 (Nature Communications, 2018)

Molecular target: T1, FgGcn5 (Fusarium graminearum, UniProt I1R9W6)
T1 construct: gene FGRAMPH1_01T00753
Conditions: inhibitor; 30 ug/ml PCN; recombinant GST-H3 substrate, 5 mM acetyl-CoA, Tris-HCl pH 8.0, 37 C, 45 min

T1 sequence (I1R9W6 1-396): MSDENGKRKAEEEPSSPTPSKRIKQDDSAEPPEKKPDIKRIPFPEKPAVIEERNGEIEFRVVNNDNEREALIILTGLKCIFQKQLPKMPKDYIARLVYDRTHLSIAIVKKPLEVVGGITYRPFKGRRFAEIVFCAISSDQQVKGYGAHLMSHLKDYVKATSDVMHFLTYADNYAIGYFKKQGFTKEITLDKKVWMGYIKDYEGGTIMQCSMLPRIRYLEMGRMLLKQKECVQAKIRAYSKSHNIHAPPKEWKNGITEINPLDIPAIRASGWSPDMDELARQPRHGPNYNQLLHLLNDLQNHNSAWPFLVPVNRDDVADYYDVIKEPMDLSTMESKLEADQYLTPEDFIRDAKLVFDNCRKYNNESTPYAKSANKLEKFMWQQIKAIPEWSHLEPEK

NC(=O)c1cccc2nc3ccccc3nc12 [PCN, phenazine-1-carboxamide]
in vitro histone H3 acetylation assay, immunoblot (H3 pan-acetyl and H3K18ac): demonstrating that PCN was able to inhibit the HAT activity of FgGcn5 in vitro
